# Target: T1, BRD9 (Homo sapiens, UniProt Q9H8M2)
# T1 sequence (Q9H8M2 1-597): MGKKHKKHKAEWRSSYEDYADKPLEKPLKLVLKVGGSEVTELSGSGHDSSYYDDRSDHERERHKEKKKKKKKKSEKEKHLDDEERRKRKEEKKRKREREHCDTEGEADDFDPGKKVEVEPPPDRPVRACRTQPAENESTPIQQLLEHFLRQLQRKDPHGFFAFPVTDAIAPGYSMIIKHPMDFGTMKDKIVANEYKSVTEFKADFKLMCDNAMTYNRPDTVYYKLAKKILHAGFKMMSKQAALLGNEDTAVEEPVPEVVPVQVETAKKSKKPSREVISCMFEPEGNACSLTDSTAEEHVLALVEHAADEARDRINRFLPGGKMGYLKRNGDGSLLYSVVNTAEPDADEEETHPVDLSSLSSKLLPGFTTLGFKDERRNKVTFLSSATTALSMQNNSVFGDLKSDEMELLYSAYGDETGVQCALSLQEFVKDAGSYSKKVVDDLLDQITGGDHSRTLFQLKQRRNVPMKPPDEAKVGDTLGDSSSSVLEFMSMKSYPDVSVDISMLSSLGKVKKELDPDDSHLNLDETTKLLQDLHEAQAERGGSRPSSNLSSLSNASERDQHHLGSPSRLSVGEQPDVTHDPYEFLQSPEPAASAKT
# Experiment: HiBiT BRD9 degradation assay in 293T.166 (BRD9-HiBiT) cells
# Format: cell-based
# Set-up: endogenously expressing BRD9 with HiBiT fusion tag via CRISPR; host or cells: 293T.166 (BRD9-HiBiT), also expressing LgBiT ectopically
# Settings: Table 1; 293T.166 cells, 2.0 hours; class symbols; read-out: HiBiT-Degradation 293T.166 BRD9 2.0 hours (DC50)
# Method in brief: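 Luminescence from the Nano-Glo HiBiT lytic reagent quantified BRD9 loss after compounds (top 10 μM, half-log, 11 points, duplicates) were incubated 2 h at 37° C. with 10,000 293T.166 BRD9-HiBiT/LgBiT cells per well, with controls lacking compound or lacking reagent.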
row,DC50,SMILES
1,< 100 nM,COc1cc(-c2cn(C)c(=O)c3[nH]ncc23)cc(OC)c1CN1CCN(C(=O)CN2CCC(c3ccc(NC4CCC(=O)NC4=O)cc3C(F)(F)F)CC2)CC1 (stereo not shown) [Compound 18]
2,< 100 nM,COc1cc(-c2cn(C)c(=O)c3[nH]ncc23)cc(OC)c1CN1CCN(C(=O)CN2CCC(c3ccc(NC4CCC(=O)NC4=O)cc3C(F)F)CC2)CC1 (stereo not shown) [Compound 11]
3,< 100 nM,"COc1cc(-c2cn(C)c(=O)c3[nH]ncc23)cc(OC)c1Cc1ccc(CC(=O)N2CCC(c3ccc(NC4CCC(=O)NC4=O)cc3)CC2)cc1 (stereo not shown) [Compound 207, 3-[4-[1-[2-[4-[[2,6-dimethoxy-4-(6-methyl-7-oxo-1H-pyrazolo[3,4-c]pyridin-4-yl)phenyl]methyl]phenyl]acetyl]-4-piperidyl]anilino]piperidine-2,6-dione]"
4,< 100 nM,CN(C(=O)N1CCC(c2ccc(NC3CCC(=O)NC3=O)cc2)CC1)C1CCN(C(=O)c2ccc(-c3cn(C)c(=O)c4[nH]ncc34)cc2OC(F)(F)F)CC1 (stereo not shown) [Compound 130]
5,100 to 500 nM,"COc1cc(-c2cn(C)c(=O)c3[nH]ncc23)cc(OC)c1CN1CC[C@@H](NC(=O)CN2CCC(c3ccc(NC4CCC(=O)NC4=O)cc3)CC2)C1 (stereo in doubt) [Compound 69, N-[1-[[2,6-dimethoxy-4-(6-methyl-7-oxo-1H-pyrazolo[3,4-c]pyridin-4-yl)phenyl]methyl]pyrrolidin-3-yl]-2-[4-[4-[(2,6-dioxo-3-piperidyl)amino]phenyl]-1-piperidyl]acetamide]"
6,< 100 nM,COc1cc(-c2cn(C)c(=O)c3cnccc23)cc(OC)c1CN1CCC(N2CCN(c3ccc(NC4CCC(=O)NC4=O)cc3Cl)CC2)C(F)(F)C1 (stereo not shown) [Compound 188]
7,< 100 nM,"COc1cc(-c2cn(C)c(=O)c3cnccc23)cc(Cl)c1C(=O)N1CCc2c(CC3CCN(c4ccc(NC5CCC(=O)NC5=O)cc4F)CC3)ccc(F)c2C1 (stereo not shown) [Compound 239, 3-[4-[4-[[2-[2-chloro-6-methoxy-4-(2-methyl-1-oxo-2,7-naphthyridin-4-yl)benzoyl]-8-fluoro-3,4-dihydro-1H-isoquinolin-5-yl]methyl]-1-piperidyl]-3-fluoro-anilino]piperidine-2,6-dione]"
8,< 100 nM,Cc1c(-c2ccc(C(=O)N3CCC(N4CCN(c5ccc(NC6CCC(=O)NC6=O)cc5F)CC4)C(F)(F)C3)c(OC(F)(F)F)c2)cn(C)c(=O)c1C (stereo not shown) [Compound 223]
9,< 100 nM,COc1cc(-c2cn(C)c(=O)c3ccccc23)cc(OC)c1CN1CCN(C(=O)CC2CCN(c3ccc(NC4CCC(=O)NC4=O)cc3C(F)(F)F)CC2)CC1 (stereo not shown) [Compound 62]
10,< 100 nM,COc1cc(-c2cn(C)c(=O)c3[nH]ncc23)cc(Cl)c1CN1CCC(N(C)C(=O)N2CCC(c3ccc(NC4CCC(=O)NC4=O)cc3)CC2)CC1 (stereo not shown) [Compound 117]
11,< 100 nM,"COc1cc(-c2cn(C)c(=O)c3[nH]ncc23)cc(OC)c1CN1CCN(C(=O)CN2CCC(c3ccc(NC4CCC(=O)NC4=O)cc3)CC2)CC1 (single isomer, unassigned) [Compound 3]"
12,100 to 500 nM,Cn1cc(-c2cc(Cl)c(C(=O)N3CCN(C(=O)CN4CCC(c5ccc(NC6CCC(=O)NC6=O)cc5)CC4)CC3)cc2Cl)c2cn[nH]c2c1=O (stereo not shown) [Compound 48]
13,< 100 nM,"COc1cc(-c2cn(C)c(=O)c3[nH]ncc23)cc(OC)c1CC1CCN(CCN2CCC(c3ccc(NC4CCC(=O)NC4=O)cc3)CC2)CC1 (stereo not shown) [Compound 168, 3-[4-[1-[2-[4-[[2,6-dimethoxy-4-(6-methyl-7-oxo-1H-pyrazolo[3,4-c]pyridin-4-yl)phenyl]methyl]-1-piperidyl]ethyl]-4-piperidyl]anilino]piperidine-2,6-dione]"

# Same assay, conditions: Table 2; 293T.166 cells, 2.0 hours; class symbols; read-out: HiBiT-Degradation 293T.166 BRD9 2.0 hours (DC50)
row,DC50,SMILES
1,< 100 nM,COc1cc(-c2cn(C)c(=O)c(C)c2C)cc(Cl)c1CN1CCC(N2CCN(c3ccc(N(C)C4CCC(=O)NC4=O)cc3F)CC2)C(F)(F)C1 (stereo not shown) [Compound 248]
2,< 100 nM,COc1cc(-c2cn(C)c(=O)c(C)c2C)cc(Cl)c1CN1CCC(F)(CCC2CCN(c3ccc(NC4CCC(=O)NC4=O)cc3Cl)CC2)CC1 (stereo not shown) [Compound 263]
3,< 100 nM,"COc1cc(-c2cn(C)c(=O)c(C)c2C)cc(Cl)c1CN1CCC(C2CCN(c3ccc(NC4CCC(=O)NC4=O)cc3F)CC2)C(F)(F)C1 (single isomer, unassigned) [Compound 256]"

# Reference: patent US11691972B2, “Compounds for targeted degradation of BRD9” (C4 Therapeutics, Inc., priority 2020, dated 2023)
